The results in this text go back to patent US10167257B2, “Indole derivatives for use in medicine” (IOmet Pharma Ltd., priority 2014, dated 2019).

Assay [1] has as its target T1, IDO (SKOV-3 cells) (Homo sapiens, UniProt P14902).
T1 construct: This assay utilised cancer cells which expressed either TDO or IDO; host or cells: SKOV-3 ovary adenocarcinoma cells, IFNγ-induced
Briefly: IDO cell-based assay (SKOV-3, IFNγ-induced), kynurenine production. The following applies: SKOV-3 ovary adenocarcinoma cells, IFNγ 500 ng/ml, 500 μM L-Trp, 48 h, kynurenine by absorbance at 490 nm. Summed up: (§1)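 SKOV-3 cells (IDO, induced with 500 ng/ml IFNγ) or A172 glioblastoma cells (TDO) were incubated with compound and 500 μM L-Trp for 48 h at 37 °C in phenol-red-free RPMI with dialysed serum. Supernatant kynurenine was measured with 1% Ehrlich's reagent as absorbance at 490 nm.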

The target of assay [2] is T2, TDO (A172 cells) (Homo sapiens, UniProt P48775).
T2 construct: This assay utilised cancer cells which expressed either TDO or IDO; host or cells: A172 human glioblastoma cells
T2 sequence (P48775 whole entry): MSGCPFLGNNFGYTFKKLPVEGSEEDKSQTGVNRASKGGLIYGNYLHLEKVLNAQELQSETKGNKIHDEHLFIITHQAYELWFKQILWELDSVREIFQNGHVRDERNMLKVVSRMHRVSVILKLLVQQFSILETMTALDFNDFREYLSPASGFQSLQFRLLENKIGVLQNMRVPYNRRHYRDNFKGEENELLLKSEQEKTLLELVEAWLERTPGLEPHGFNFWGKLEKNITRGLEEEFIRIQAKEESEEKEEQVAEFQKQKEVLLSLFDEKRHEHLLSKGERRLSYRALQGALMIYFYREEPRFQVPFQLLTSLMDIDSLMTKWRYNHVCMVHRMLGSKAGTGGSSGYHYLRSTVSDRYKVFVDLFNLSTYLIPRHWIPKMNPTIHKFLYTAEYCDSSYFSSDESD
The assay is described as follows: TDO cell-based assay (A172), kynurenine production. As to conditions: A172 human glioblastoma cells, 500 μM L-Trp, 48 h, kynurenine by absorbance at 490 nm. The method, boiled down: as §1

T1 sequence (P14902 whole entry): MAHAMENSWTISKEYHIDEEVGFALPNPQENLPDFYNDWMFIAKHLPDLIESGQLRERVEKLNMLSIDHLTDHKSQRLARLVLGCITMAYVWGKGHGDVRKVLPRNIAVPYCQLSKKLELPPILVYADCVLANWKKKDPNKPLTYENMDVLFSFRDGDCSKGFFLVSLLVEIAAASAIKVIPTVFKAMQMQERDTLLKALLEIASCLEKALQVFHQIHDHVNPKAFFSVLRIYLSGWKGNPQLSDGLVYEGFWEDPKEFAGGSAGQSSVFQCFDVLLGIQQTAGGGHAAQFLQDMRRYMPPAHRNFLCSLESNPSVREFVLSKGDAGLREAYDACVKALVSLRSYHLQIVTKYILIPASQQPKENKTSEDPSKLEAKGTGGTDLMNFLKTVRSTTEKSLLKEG

For `C[C@@H](NC(=O)c1cc2cc(C(F)(F)F)ccc2[nH]1)c1ccccc1` [Compound 158], in assay [1], the “IDO cellular assay (SKOV3) pIC50” value was “+++ (+++ = pIC50 ≥5.50)”. Moreover, the “TDO cellular assay (A172) pIC50” value in assay [2] was “− (− = pIC50 <4.50)”.
For `COc1ccc2cc(C(=O)N[C@H](C)c3ccccc3)[nH]c2c1` [Compound 159], in that order: “++ (++ = pIC50 5.00-<5.50)” and “− (− = pIC50 <4.50)”.
As to `CC(=O)N1CCC(C2(NC(=O)c3cc4cc(Cl)ccc4[nH]3)CC2)CC1` [Compound 160], the “IDO cellular assay (SKOV3) pIC50” value in assay [1] was “+++ (+++ = pIC50 ≥5.50)”. Besides, in assay [2], the “TDO cellular assay (A172) pIC50” value is “− (− = pIC50 <4.50)”.
For the compound `CS(=O)(=O)N1CCC(C2(NC(=O)c3cc4cc(Cl)ccc4[nH]3)CC2)CC1` [Compound 161], the “IDO cellular assay (SKOV3) pIC50” value in assay [1] is recorded as “+++ (+++ = pIC50 ≥5.50)”. For the same compound, the “TDO cellular assay (A172) pIC50” value in assay [2] was “− (− = pIC50 <4.50)”.
For `COc1ccc2cc(C(=O)NC3(c4ccccc4)CC3)[nH]c2c1` [Compound 162], in that order: “++ (++ = pIC50 5.00-<5.50)” and “− (− = pIC50 <4.50)”.
For `C[C@@H](NC(=O)c1cc2cc(Cl)cnc2[nH]1)c1ccccc1` [Compound 163], in that order: “+ (+ = pIC50 4.50-<5.00)” and “− (− = pIC50 <4.50)”.
Turning to `O=C(NC1(c2ccccc2)CC1)c1cc2cc(Cl)cnc2[nH]1` [Compound 164], the “IDO cellular assay (SKOV3) pIC50” value in assay [1] is “+++ (+++ = pIC50 ≥5.50)”. In addition, in assay [2], the “TDO cellular assay (A172) pIC50” value is recorded as “− (− = pIC50 <4.50)”.
For `CC(NC(=O)c1cc2cc(Cl)cnc2[nH]1)c1cnn(C)c1` (stereo not drawn) [Compound 165], in that order: “+ (+ = pIC50 4.50-<5.00)” and “− (− = pIC50 <4.50)”.
For `COc1ccc2cc(C(=O)NC(C)c3cnn(C)c3)[nH]c2c1` (stereo not drawn) [Compound 166], in that order: “+ (+ = pIC50 4.50-<5.00)” and “− (− = pIC50 <4.50)”.
`COc1ccc2cc(C(=O)NC3(c4cnn(C)c4)CC3)[nH]c2c1` [Compound 167]: the “IDO cellular assay (SKOV3) pIC50” value in assay [1] is “++ (++ = pIC50 5.00-<5.50)”. Moreover, the “TDO cellular assay (A172) pIC50” value in assay [2] is given as “− (− = pIC50 <4.50)”.
As for `Cn1cc(C2(NC(=O)c3cc4cc(C(F)(F)F)ccc4[nH]3)CC2)cn1` [Compound 168], in assay [1], the “IDO cellular assay (SKOV3) pIC50” value is given as “+++ (+++ = pIC50 ≥5.50)”. In addition, in assay [2], the “TDO cellular assay (A172) pIC50” value is “+ (+ = pIC50 4.50-<5.00)”.
The like results for `COc1ccc2cc(C(=O)NC3(c4ccccc4)COC3)[nH]c2c1` [Compound 169] were, in that order, “++ (++ = pIC50 5.00-<5.50)” and “− (− = pIC50 <4.50)”.
For `O=C(NC1(c2ccccc2)COC1)c1cc2cc(C(F)(F)F)ccc2[nH]1` [Compound 170], in that order: “+++ (+++ = pIC50 ≥5.50)” and “+ (+ = pIC50 4.50-<5.00)”.
As to `O=C(NC1(c2ccccc2)COC1)c1cc2cc(Cl)cnc2[nH]1` [Compound 171], in assay [1], the “IDO cellular assay (SKOV3) pIC50” value is recorded as “+++ (+++ = pIC50 ≥5.50)”. Also, the “TDO cellular assay (A172) pIC50” value in assay [2] is on record as “− (− = pIC50 <4.50)”.
As to `O=C(NC1(c2ccccc2)CC1)c1cc2ccc(O)cc2[nH]1` [Compound 172], the “IDO cellular assay (SKOV3) pIC50” value in assay [1] is listed as “+ (+ = pIC50 4.50-<5.00)”. For the same compound, the “TDO cellular assay (A172) pIC50” value in assay [2] was “− (− = pIC50 <4.50)”.
For `CC(NC(=O)c1cc2cc(Cl)ccc2[nH]1)c1ccn(-c2ccccc2)n1` (stereo not drawn) [Compound 173], in that order: “+++ (+++ = pIC50 ≥5.50)” and “− (− = pIC50 <4.50)”.
For `C[C@@H](NC(=O)c1cc2cc(Cl)cc(F)c2[nH]1)c1ccccc1` [Compound 174], in that order: “+++ (+++ = pIC50 ≥5.50)” and “++ (++ = pIC50 5.00-<5.50)”.
As to `COc1ccc2[nH]c(C(=O)N[C@H](C)c3ccccc3)cc2c1` [Compound 175], in assay [1], the “IDO cellular assay (SKOV3) pIC50” value is “+++ (+++ = pIC50 ≥5.50)”. Besides, in assay [2], the “TDO cellular assay (A172) pIC50” value is “− (− = pIC50 <4.50)”.
For `COc1ccc2[nH]c(C(=O)NC3(c4cnn(C)c4)CC3)cc2c1` [Compound 176], in that order: “+++ (+++ = pIC50 ≥5.50)” and “− (− = pIC50 <4.50)”.
Turning to `Cn1cc(C2(NC(=O)c3cc4cc(Cl)cnc4[nH]3)CC2)cn1` [Compound 177], the “IDO cellular assay (SKOV3) pIC50” value in assay [1] is listed as “++ (++ = pIC50 5.00-<5.50)”. Also, the “TDO cellular assay (A172) pIC50” value in assay [2] is recorded as “− (− = pIC50 <4.50)”.
For `COc1ccc2[nH]c(C(=O)NC3(c4ccccc4)COC3)cc2c1` [Compound 178], in that order: “+++ (+++ = pIC50 ≥5.50)” and “− (− = pIC50 <4.50)”.
